Laboratory results from patent US11477982B2, “2-amino-5-oxyalkyl-pyrimidine derivatives and their use for controlling undesired plant growth” (Bayer CropScience Aktiengesellschaft, priority 2017, dated 2022).

Assays:
Assay type in all cases: in vivo
PHBPU: Ipomoea purpurea [1] = experiment: Post-emergence herbicidal effect
Summary of the method: (§1)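 Greenhouse, sandy loam; spray at one-leaf stage (2–3 wk post-sowing); WP/EC in water + 0.5% additive, 600 l/ha; visual rating ~3 wk later vs untreated, 0–100%.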

[2] = tested on: MATIN: Matricaria inodora; experiment: Post-emergence herbicidal effect; conditions: dosage 80 g/ha
Summary of the method: as §1

STEME: Stellaria media [3] = experiment: Post-emergence herbicidal effect
Summary of the method: as §1

[4] = tested on: POLCO: Polygonum convolvulus; experiment: Post-emergence herbicidal effect
Summary of the method: as §1

VIOTR: Viola tricolor [5] = experiment: Post-emergence herbicidal effect
Summary of the method: as §1

[6] = tested on: MATIN: Matricaria inodora; experiment: Pre-emergence herbicidal effect; conditions: pre-emergence; dosage 320 g/ha
Summary of the method: (§2)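 Herbicide, as WP or EC in aqueous spray with 0.5% additive, applied at 600 l/ha to soil surface covering freshly sown seeds. Pots held in greenhouse about 3 weeks, then activity scored visually versus untreated controls as percent (0% = like control, 100% = plants dead).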

VERPE: Veronica persica [7] = experiment: Pre-emergence herbicidal effect; conditions: dosage 320 g/ha
Summary of the method: as §2

[8] = tested on: AMARE: Amaranthus retroflexus; experiment: Pre-emergence herbicidal effect; conditions: pre-emergence; dosage 320 g/ha
Summary of the method: as §2

[9] = tested on: POLCO: Polygonum convolvulus; experiment: Pre-emergence herbicidal effect; conditions: dosage 320 g/ha
Summary of the method: as §2

VIOTR: Viola tricolor [10] = experiment: Pre-emergence herbicidal effect; conditions: dosage 320 g/ha
Summary of the method: as §2

[11] = tested on: ECHCG: Echinochloa crus-galli; experiment: Post-emergence herbicidal effect
Summary of the method: as §1

VERPE: Veronica persica [12] = experiment: Post-emergence herbicidal effect; conditions: dosage 320 g/ha
Summary of the method: as §1

SETVI: Setaria viridis [13] = experiment: Post-emergence herbicidal effect
Summary of the method: as §1

[14] = tested on: AMARE: Amaranthus retroflexus; experiment: Post-emergence herbicidal effect
Summary of the method: as §1

AVEFA: Avena fatua [15] = experiment: Post-emergence herbicidal effect
Summary of the method: as §1

[16] = tested on: ABUTH: Abutilon theophrasti; experiment: Post-emergence herbicidal effect; conditions: dosage 320 g/ha
Summary of the method: as §1

PHBPU: Ipomoea purpurea [17] = experiment: Pre-emergence herbicidal effect; conditions: dosage 320 g/ha
Summary of the method: as §2

[18] = tested on: ECHCG: Echinochloa crus-galli; experiment: Pre-emergence herbicidal effect; conditions: pre-emergence; dosage 320 g/ha
Summary of the method: as §2

[19] = tested on: ALOMY: Alopecurus myosuroides; experiment: Pre-emergence herbicidal effect; conditions: pre-emergence; dosage 320 g/ha
Summary of the method: as §2

SETVI: Setaria viridis [20] = experiment: Pre-emergence herbicidal effect; conditions: pre-emergence; dosage 320 g/ha
Summary of the method: as §2

AVEFA: Avena fatua [21] = experiment: Pre-emergence herbicidal effect; conditions: dosage 320 g/ha
Summary of the method: as §2

STEME: Stellaria media [22] = experiment: Pre-emergence herbicidal effect; conditions: pre-emergence; dosage 320 g/ha
Summary of the method: as §2

LOLRI: Lolium rigidum = experiment: Pre-emergence herbicidal effect; conditions: dosage 320 g/ha
Summary of the method: as §2

[23] = tested on: ABUTH: Abutilon theophrasti; experiment: Pre-emergence herbicidal effect; conditions: dosage 320 g/ha
Summary of the method: as §2

HORMU: Hordeum murinum = experiment: Pre-emergence herbicidal effect; conditions: pre-emergence; dosage 320 g/ha
Summary of the method: as §2

For `Cc1ccc2c(c1)[C@H](Nc1ncc(C(C)(C)O)c(N)n1)[C@@H](C)C2` [drawing 13, reference compound], the “Herbicidal action against PHBPU” value (PHBPU: Ipomoea purpurea [1]; dosage 320 g/ha) was 50%, the “Herbicidal action against MATIN” value [2] was 0% and the “Herbicidal action against STEME” value (STEME: Stellaria media [3]; dosage 80 g/ha) was 0%. For the same compound, the “Herbicidal action against STEME” value (STEME: Stellaria media [3]; dosage 320 g/ha) was 0%, the “Herbicidal action against POLCO” value ([4]; dosage 320 g/ha) was 0% and the “Herbicidal action against VIOTR” value (VIOTR: Viola tricolor [5]; dosage 80 g/ha) was 60%.

With `Cc1ccc2c(c1)[C@H](Nc1ncc(C(C)O)cn1)[C@@H](C)C2` (stereo partly drawn) [Example 1.2] the “Herbicidal action against MATIN” value [6] was 100%, the “Herbicidal action against VERPE” value (VERPE: Veronica persica [7]) was 100% and the “Herbicidal action against AMARE” value [8] was 100%. For the same compound, the “Herbicidal action against POLCO” value [9] was 100%, the “Herbicidal action against VIOTR” value (VIOTR: Viola tricolor [10]) was 100% and the “Herbicidal action against PHBPU” value (PHBPU: Ipomoea purpurea [1]; dosage 80 g/ha) was 40%. The “Herbicidal action against ECHCG” value ([11]; dosage 80 g/ha) was 40%, the “Herbicidal action against ECHCG” value ([11]; dosage 320 g/ha) was 100% and the “Herbicidal action against VERPE” value (VERPE: Veronica persica [12]) was 90%. The “Herbicidal action against SETVI” value (SETVI: Setaria viridis [13]; dosage 80 g/ha) was 90%, the “Herbicidal action against SETVI” value (SETVI: Setaria viridis [13]; dosage 320 g/ha) was 90% and the “Herbicidal action against AMARE” value ([14]; dosage 80 g/ha) was 100%. For the same compound, the “Herbicidal action against AMARE” value ([14]; dosage 320 g/ha) was 100%, the “Herbicidal action against AVEFA” value (AVEFA: Avena fatua [15]; dosage 80 g/ha) was 60% and the “Herbicidal action against AVEFA” value (AVEFA: Avena fatua [15]; dosage 320 g/ha) was 80%. For the same compound, the “Herbicidal action against STEME” value (STEME: Stellaria media [3]; dosage 80 g/ha) was 90%, the “Herbicidal action against STEME” value (STEME: Stellaria media [3]; dosage 320 g/ha) was 100% and the “Herbicidal action against POLCO” value ([4]; dosage 80 g/ha) was 90%. For the same compound, the “Herbicidal action against POLCO” value ([4]; dosage 320 g/ha) was 90%, the “Herbicidal action against ABUTH” value [16] was 80% and the “Herbicidal action against VIOTR” value (VIOTR: Viola tricolor [5]; dosage 320 g/ha) was 80%.

`Cc1ccc2c(c1)[C@H](Nc1ncc(C(C)(C)O)cn1)CC2` [Example 1.5] was tested, and the “Herbicidal action against PHBPU” value (PHBPU: Ipomoea purpurea [17]) was 100%, the “Herbicidal action against ECHCG” value [18] was 100% and the “Herbicidal action against MATIN” value [6] was 100%. For the same compound, the “Herbicidal action against ALOMY” value [19] was 100%, the “Herbicidal action against VERPE” value (VERPE: Veronica persica [7]) was 100% and the “Herbicidal action against SETVI” value (SETVI: Setaria viridis [20]) was 100%. For the same compound, the “Herbicidal action against AMARE” value [8] was 100%, the “Herbicidal action against AVEFA” value (AVEFA: Avena fatua [21]) was 100% and the “Herbicidal action against STEME” value (STEME: Stellaria media [22]) was 100%. For the same compound, the “Herbicidal action against POLCO” value [9] was 100%, the “Herbicidal action against LOLRI” value (LOLRI: Lolium rigidum) was 100% and the “Herbicidal action against ABUTH” value [23] was 100%. The “Herbicidal action against HORMU” value (HORMU: Hordeum murinum) was 100%, the “Herbicidal action against VIOTR” value (VIOTR: Viola tricolor [10]) was 100% and the “Herbicidal action against ECHCG” value ([11]; dosage 320 g/ha) was 100%. For the same compound, the “Herbicidal action against VERPE” value (VERPE: Veronica persica [12]) was 90%, the “Herbicidal action against SETVI” value (SETVI: Setaria viridis [13]; dosage 320 g/ha) was 90% and the “Herbicidal action against AMARE” value ([14]; dosage 320 g/ha) was 100%. For the same compound, the “Herbicidal action against STEME” value (STEME: Stellaria media [3]; dosage 320 g/ha) was 100%, the “Herbicidal action against ABUTH” value [16] was 100% and the “Herbicidal action against VIOTR” value (VIOTR: Viola tricolor [5]; dosage 320 g/ha) was 90%.

In the case of `CCc1ccc2c(c1)[C@H](Nc1ncc(C(C)(C)O)c(C)n1)CC2` [Example 1.57], the “Herbicidal action against PHBPU” value (PHBPU: Ipomoea purpurea [17]) is reported as 100%, the “Herbicidal action against ECHCG” value [18] is reported as 100% and the “Herbicidal action against MATIN” value [6] is reported as 100%. For the same compound, the “Herbicidal action against ALOMY” value [19] was 100%, the “Herbicidal action against VERPE” value (VERPE: Veronica persica [7]) was 100% and the “Herbicidal action against SETVI” value (SETVI: Setaria viridis [20]) was 100%. The “Herbicidal action against AMARE” value [8] was 100%, the “Herbicidal action against AVEFA” value (AVEFA: Avena fatua [21]) was 100% and the “Herbicidal action against STEME” value (STEME: Stellaria media [22]) was 100%. For the same compound, the “Herbicidal action against POLCO” value [9] was 100%, the “Herbicidal action against LOLRI” value (LOLRI: Lolium rigidum) was 100% and the “Herbicidal action against ABUTH” value [23] was 100%. The “Herbicidal action against HORMU” value (HORMU: Hordeum murinum) was 100%, the “Herbicidal action against VIOTR” value (VIOTR: Viola tricolor [10]) was 100% and the “Herbicidal action against ECHCG” value ([11]; dosage 320 g/ha) was 100%. The “Herbicidal action against VERPE” value (VERPE: Veronica persica [12]) was 90%, the “Herbicidal action against SETVI” value (SETVI: Setaria viridis [13]; dosage 320 g/ha) was 90% and the “Herbicidal action against AMARE” value ([14]; dosage 320 g/ha) was 100%. For the same compound, the “Herbicidal action against STEME” value (STEME: Stellaria media [3]; dosage 320 g/ha) was 90%, the “Herbicidal action against ABUTH” value [16] was 90% and the “Herbicidal action against VIOTR” value (VIOTR: Viola tricolor [5]; dosage 320 g/ha) was 90%.

In the case of `C=CC(C)(O)c1cnc(N[C@H]2c3cc(C)ccc3C[C@@H]2C)nc1` (stereo partly drawn) [Example 1.15, 2-(2-{[(1R,2S)-2,6-Dimethyl-2,3-dihydro-1H-inden-1-yl]amino}pyrimidin-5-yl)but-3-en-2-ol], the “Herbicidal action against PHBPU” value (PHBPU: Ipomoea purpurea [17]) is reported as 100%, the “Herbicidal action against ECHCG” value [18] is reported as 100% and the “Herbicidal action against MATIN” value [6] is reported as 100%. For the same compound, the “Herbicidal action against ALOMY” value [19] was 100%, the “Herbicidal action against VERPE” value (VERPE: Veronica persica [7]) was 100% and the “Herbicidal action against SETVI” value (SETVI: Setaria viridis [20]) was 100%. For the same compound, the “Herbicidal action against AMARE” value [8] was 100%, the “Herbicidal action against AVEFA” value (AVEFA: Avena fatua [21]) was 100% and the “Herbicidal action against STEME” value (STEME: Stellaria media [22]) was 100%. For the same compound, the “Herbicidal action against POLCO” value [9] was 100%, the “Herbicidal action against LOLRI” value (LOLRI: Lolium rigidum) was 100% and the “Herbicidal action against ABUTH” value [23] was 100%. For the same compound, the “Herbicidal action against HORMU” value (HORMU: Hordeum murinum) was 100%, the “Herbicidal action against VIOTR” value (VIOTR: Viola tricolor [10]) was 100% and the “Herbicidal action against ECHCG” value ([11]; dosage 320 g/ha) was 100%. For the same compound, the “Herbicidal action against VERPE” value (VERPE: Veronica persica [12]) was 90%, the “Herbicidal action against SETVI” value (SETVI: Setaria viridis [13]; dosage 320 g/ha) was 80% and the “Herbicidal action against AMARE” value ([14]; dosage 320 g/ha) was 90%. The “Herbicidal action against STEME” value (STEME: Stellaria media [3]; dosage 320 g/ha) was 100%, the “Herbicidal action against ABUTH” value [16] was 90% and the “Herbicidal action against VIOTR” value (VIOTR: Viola tricolor [5]; dosage 320 g/ha) was 80%.
